Laboratory results published in patent US4003891A, “Preparation of metal complexes of 6-methoxy-1-phenazinol 5,10 dioxide” (Hoffmann-La Roche Inc., priority 1975, dated 1977).

Tests used:
[1] = system: P. aeruginosa; assay: In vivo anti-microbial efficacy against bacteria (ED50')
Procedure: (§1) For example, the anti-microbial activity of calcium myxin dihydrate, prepared by the method of this invention, is evaluated and compared to that of myxin itself both in vivo against 4 strains of bacteria and in vitro against yeast and fungus infections.

[2] = system: S. agalactiae; assay: as above
Procedure: as §1

[3] = system: S. aureus; assay: as above
Procedure: as §1

[4] = system: E. coli; assay: as above
Procedure: as §1

[5] = Solubility in water; assay type: physicochemical

Compound	ED50' [1] [µg/mL]	ED50' [2] [µg/mL]	ED50' [3] [µg/mL]	ED50' [4] [µg/mL]	solubility in water [5]
6-methoxy-1-phenazinol 5,10-dioxide, calcium dihydrate complex [Calcium Myxin Dihydrate]	20	< 4	< 20	60	–
COc1cccc2c1[n+]([O-])c1cccc(O)c1[n+]2[O-] [Myxin, 6-methoxy-1-phenazinol 5,10-dioxide]	–	–	–	–	very slightly soluble
